In brackets after ≈: the same amount, converted by molar mass.
Key:
Type in all cases: functional
[1] = tested on: Pseudomonas aeruginosa; assay: Antibacterial activity against nonreplicate Pseudomonas aeruginosa clinical isolate by Etest method
[2] = tested on: Klebsiella pneumoniae; assay: Antibacterial activity against nonreplicate Klebsiella pneumoniae clinical isolate by Etest method
[3] = tested on: Klebsiella aerogenes; assay: Antibacterial activity against nonreplicate Enterobacter aerogenes clinical isolate by Etest method
[4] = tested on: Proteus mirabilis; assay: Antibacterial activity against nonreplicate Proteus mirabilis clinical isolate by Etest method
[5] = tested on: Enterobacter cloacae; assay: Antibacterial activity against nonreplicate Enterobacter cloacae clinical isolate by Etest method
[6] = tested on: Pseudomonas putida; assay: Antibacterial activity against nonreplicate Pseudomonas putida clinical isolate by Etest method
[7] = tested on: Acinetobacter baumannii; assay: Antibacterial activity against nonreplicate Acinetobacter baumannii clinical isolate by Etest method
[8] = Antibacterial activity against nonreplicate Burkholderia cepacia complex clinical isolate by Etest method
[9] = tested on: Enterobacter cloacae; assay: Antibacterial activity against VIM-1 producing Enterobacter cloacae isolate TO-16X-51 by Etest method
[10] = tested on: Pseudomonas putida; assay: Antibacterial activity against VIM-1 producing Pseudomonas putida isolate RM-11X-11 by Etest method
[11] = tested on: Pseudomonas aeruginosa; assay: Antibacterial activity against VIM-1 producing Pseudomonas aeruginosa clone A1 isolate FG-17X-14 by Etest method
[12] = tested on: Pseudomonas aeruginosa; assay: Antibacterial activity against VIM-1 producing Pseudomonas aeruginosa clone A2 isolate NA-14X-21 by Etest method
[13] = tested on: Pseudomonas aeruginosa; assay: Antibacterial activity against VIM-1 producing Pseudomonas aeruginosa clone A2 isolate NA-14X-26 by Etest method
[14] = tested on: Pseudomonas aeruginosa; assay: Antibacterial activity against VIM-1 producing Pseudomonas aeruginosa clone A2 isolate NA-14X-32 by Etest method
[15] = tested on: Pseudomonas aeruginosa; assay: Antibacterial activity against VIM-1 producing Pseudomonas aeruginosa clone A3 isolate NA-14X-34 by Etest method
[16] = tested on: Pseudomonas aeruginosa; assay: Antibacterial activity against VIM-1 producing Pseudomonas aeruginosa clone A3 isolate FG-17X-08 by Etest method
[17] = tested on: Pseudomonas aeruginosa; assay: Antibacterial activity against VIM-1 producing Pseudomonas aeruginosa clone D isolate VA-06X-69 by Etest method
[18] = tested on: Pseudomonas aeruginosa; assay: Antibacterial activity against VIM-1 producing Pseudomonas aeruginosa clone D1 isolate VA-06X-63 by Etest method
[19] = tested on: Pseudomonas aeruginosa; assay: Antibacterial activity against VIM-1 producing Pseudomonas aeruginosa clone D2 isolate VA-06X-16 by Etest method
[20] = tested on: Pseudomonas aeruginosa; assay: Antibacterial activity against VIM-1 producing Pseudomonas aeruginosa clone D2 isolate VA-06X-17 by Etest method
[21] = tested on: Pseudomonas aeruginosa; assay: Antibacterial activity against VIM-1 producing Pseudomonas aeruginosa clone D3 isolate VA-06X-65 by Etest method
[22] = tested on: Pseudomonas aeruginosa; assay: Antibacterial activity against VIM-1 producing Pseudomonas aeruginosa clone D4 isolate VA-06X-47 by Etest method
[23] = tested on: Pseudomonas aeruginosa; assay: Antibacterial activity against VIM-1 producing Pseudomonas aeruginosa clone E isolate VA-06X-29 by Etest method
[24] = tested on: Pseudomonas aeruginosa; assay: Antibacterial activity against VIM-1 producing Pseudomonas aeruginosa clone F isolate RM-11X-09 by Etest method
[25] = tested on: Pseudomonas aeruginosa; assay: Antibacterial activity against VIM-1 producing Pseudomonas aeruginosa clone G isolate NA-14X-13 by Etest method
[26] = tested on: Pseudomonas aeruginosa; assay: Antibacterial activity against VIM-2 producing Pseudomonas aeruginosa clone B1 isolate SS-09X-45 by Etest method
[27] = tested on: Pseudomonas aeruginosa; assay: Antibacterial activity against VIM-2 producing Pseudomonas aeruginosa clone B2 isolate VA-06X-20 by Etest method
[28] = tested on: Pseudomonas aeruginosa; assay: Antibacterial activity against VIM-2 producing Pseudomonas aeruginosa clone B2 isolate VA-06X-28 by Etest method
[29] = tested on: Pseudomonas aeruginosa; assay: Antibacterial activity against VIM-2 producing Pseudomonas aeruginosa clone B2 isolate VA-06X-38 by Etest method
[30] = tested on: Pseudomonas aeruginosa; assay: Antibacterial activity against VIM-2 producing Pseudomonas aeruginosa clone B3 isolate CR-04X-14 by Etest method
[31] = tested on: Pseudomonas aeruginosa; assay: Antibacterial activity against VIM-2 producing Pseudomonas aeruginosa clone B3 isolate PV-05X-02 by Etest method
[32] = tested on: Pseudomonas aeruginosa; assay: Antibacterial activity against VIM-2 producing Pseudomonas aeruginosa clone B3 isolate PV-05X-07 by Etest method
[33] = tested on: Pseudomonas aeruginosa; assay: Antibacterial activity against IMP-13 producing Pseudomonas aeruginosa clone C1 isolate AV-13X-28 by Etest method
[34] = tested on: Pseudomonas aeruginosa; assay: Antibacterial activity against IMP-13 producing Pseudomonas aeruginosa clone C2 isolate NA-14X-02 by Etest method
[35] = tested on: Pseudomonas aeruginosa; assay: Antibacterial activity against IMP-13 producing Pseudomonas aeruginosa clone C2 isolate NA-14X-10 by Etest method
[36] = tested on: Pseudomonas aeruginosa; assay: Antibacterial activity against IMP-13 producing Pseudomonas aeruginosa clone C2 isolate NA-14X-11 by Etest method
[37] = tested on: Pseudomonas aeruginosa; assay: Antibacterial activity against IMP-13 producing Pseudomonas aeruginosa clone C2 isolate NA-14X-12 by Etest method
[38] = tested on: Pseudomonas aeruginosa; assay: Antibacterial activity against IMP-13 producing Pseudomonas aeruginosa clone C3 isolate PG-12X-03 by Etest method
[39] = tested on: Pseudomonas aeruginosa; assay: Antibacterial activity against metallo-beta-lactamase positive Pseudomonas aeruginosa assessed as percent susceptible isolates by Etest method

SMILES	MIC [9]	MIC [10]	MIC [11]	MIC [12]	MIC [13]	MIC [14]	MIC [15]	MIC [16]	MIC [17]	MIC [18]	MIC [19]	MIC [20]	MIC [21]	MIC [22]	MIC [23]	MIC [24]	MIC [25]	MIC [26]	MIC [27]	MIC [28]	other results
C[C@@H](O)[C@H]1C(=O)N2C(C(=O)O)=C(SCCNC=N)C[C@H]12 [IMIPENEM ANHYDROUS]	4 µg/mL (≈ 13.4 µM)	> 32 µg/mL	> 32 µg/mL	> 32 µg/mL	> 32 µg/mL	> 32 µg/mL	> 32 µg/mL	> 32 µg/mL	> 32 µg/mL	> 32 µg/mL	> 32 µg/mL	> 32 µg/mL	> 32 µg/mL	> 32 µg/mL	> 32 µg/mL	> 32 µg/mL	> 32 µg/mL	> 32 µg/mL	> 32 µg/mL	> 32 µg/mL	MIC [1]: 8 µg/mL (≈ 26.7 µM); MIC [2]: 2 µg/mL (≈ 6.68 µM); MIC [3]: 16 µg/mL (≈ 53.4 µM); MIC [4]: 8 µg/mL (≈ 26.7 µM); MIC [5]: 4 µg/mL (≈ 13.4 µM); MIC [6]: 16 µg/mL (≈ 53.4 µM); MIC [7]: 4 µg/mL (≈ 13.4 µM); MIC [8]: 8 µg/mL (≈ 26.7 µM); MIC [29]: > 32 µg/mL; MIC [30]: > 32 µg/mL; MIC [31]: > 32 µg/mL; MIC [32]: > 32 µg/mL; MIC [33]: > 16 µg/mL; MIC [34]: > 32 µg/mL; MIC [35]: > 32 µg/mL; MIC [36]: > 32 µg/mL; MIC [37]: > 32 µg/mL; MIC [38]: > 32 µg/mL
NCC[C@H](O)C(=O)N[C@@H]1C[C@H](N)[C@@H](O[C@H]2O[C@H](CN)[C@@H](O)[C@H](O)[C@H]2O)[C@H](O)[C@H]1O[C@H]1O[C@H](CO)[C@@H](O)[C@H](N)[C@H]1O [AMIKACIN]	24 µg/mL (≈ 41 µM)	1 µg/mL (≈ 1.71 µM)	8 µg/mL (≈ 13.7 µM)	24 µg/mL (≈ 41 µM)	32 µg/mL (≈ 54.6 µM)	24 µg/mL (≈ 41 µM)	24 µg/mL (≈ 41 µM)	16 µg/mL (≈ 27.3 µM)	8 µg/mL (≈ 13.7 µM)	8 µg/mL (≈ 13.7 µM)	8 µg/mL (≈ 13.7 µM)	8 µg/mL (≈ 13.7 µM)	8 µg/mL (≈ 13.7 µM)	8 µg/mL (≈ 13.7 µM)	> 128 µg/mL	8 µg/mL (≈ 13.7 µM)	> 128 µg/mL	> 128 µg/mL	> 128 µg/mL	> 128 µg/mL	MIC [29]: > 128 µg/mL; MIC [30]: > 128 µg/mL; MIC [31]: > 128 µg/mL; MIC [32]: > 128 µg/mL; MIC [33]: 8 µg/mL (≈ 13.7 µM); MIC [34]: 16 µg/mL (≈ 27.3 µM); MIC [35]: 16 µg/mL (≈ 27.3 µM); MIC [36]: 16 µg/mL (≈ 27.3 µM); MIC [37]: 16 µg/mL (≈ 27.3 µM); MIC [38]: > 128 µg/mL; Activity [39]: 50%
